Assays:
arthritis pain = conditions: cited from earlier work
patients = conditions: Zometa Prescribing Information; cited from earlier work
[1] = system: patients with osteoporosis; assay: Zoledronic Acid alone or with prednisone (ZP), single infusion in osteoporosis patients: post-dosing syndrome; format: in vivo, human; conditions: four patients per arm
Experimental: Eight patients with osteoporosis were treated with a single infusion of Zoledronic Acid alone (four patients) or with a single infusion of the combination of prednisone and Zoledronic Acid (ZP, four patients).

[2] = system: subjects with knee osteoarthritis; assay: Single blind, single center study of intravenous ZP or ZA in knee osteoarthritis; format: in vivo, human
Experimental: In a further study, this one, a single blind, single center study, 20 subjects with knee osteoarthritis were randomized to either intravenous ZP or ZA in a 1:1 ratio. Subjects were followed for six months. Efficacy was measured by change in pain in 100 mm visual analogue score (VAS) from baseline (mean values). Patients were asked about the level of pain without taking rescue medications (NSAIDS or tramadol). Bone mineral density (BMD) was determined at baseline and six months to detect any effect on bone.

[3] = in vivo; cited from earlier work
[4] = system: subjects with osteoarthritis; assay: Joint pain (VAS scale) in the osteoarthritis subjects of the first study; format: in vivo, human; conditions: six months after the single infusion (one ZP subject up to one year); three ZP, two Zoledronic Acid subjects with osteoarthritis
Experimental: Of the 8 subjects, five had osteoarthritis. Of these five, three were treated with ZP and two with Zoledronic Acid.

Row | Compound | effect on arthritis pain (arthritis pain; IV, by itself) | duration of effect (arthritis pain; in vivo) | patients affected by post-dosing syndrome (PDS) (patients) [%] | patients suffering from post-dosing syndrome (PDS) [1] | ΔBMD ([2]; bone mineral density, baseline versus six months) | Δ Mean VAS ([2]; change in pain in 100 mm visual analogue score from baseline (mean values), six months follow-up, without rescue medications) [mm] | PDS (# reporting/total) ([2]; intravenous, 10 subjects per cohort, knee osteoarthritis) | half-life (t1/2α) [3] | change in joint pain (VAS scale) [4]
1 | C[C@]12C=CC(=O)C=C1CC[C@@H]1[C@@H]2[C@@H](O)C[C@@]2(C)[C@H]1CC[C@]2(O)C(=O)CO [Prednisolone] | no effect on arthritis pain | transient, less than a day | – | – | – | – | – | – | –
2 | O=P(O)(O)C(O)(Cn1ccnc1)P(=O)(O)O [Zoledronic Acid] | – | – | ≤ 44 | All four | 0 | −10 | 6/10 | about 0.24 hours | same (one) or worse (one) level of pain

From patent US8859530B2, “Co-administration of steroids and zoledronic acid to prevent and treat osteoarthritis” (Voltarra Pharmaceuticals, Inc., priority 2013, dated 2014)
